Experimental data published in patent publication US9907790B2, “Solid forms of an ASK1 inhibitor” (Gilead Sciences, Inc., priority 2014, dated 2018).
≈ marks a conversion by molar mass, not a printed value. Blank lines part the entries; values can stand above or below the compound they belong to.

Legend:
Assay type in all cases: physicochemical
[1] = Solubility of Compound I in EtOH; conditions: ethanol, organic solvent or mixture
Experimental: The crystallization was then continued in line with Method 1 outlined above. After filtration, the Form I solids are dried in a vacuum oven at about 45-50° C.

[2] = Stable form screen of Compound I (suspension in solvents at RT, solids analysed by XRPD); conditions: starting from Compound I Form I
Experimental: Compound I Form I was suspended with stirring in capped glass vials at RT. Samples from the suspensions were centrifuged/filtered and the isolated solids and liquids were analyzed. Solids were analyzed by XRPD and liquids were analyzed for solubility by […]. Sampling and analysis were performed after one day and greater than fourteen days.

[3] = Form change on heating, drying or exposure to ambient conditions; conditions: for form change upon drying: drying (air-drying at RT); for form change at ambient conditions: ambient temperature and humidity / storage at ambient conditions
From the text: Form V has only been truly isolated by growth of single crystals.
Isolated solids were dried with filter paper to remove residual solvents and analyzed by DSC, TGA and KF. […] (FIG. 45).
The sample was stirred for more than two months before being placed into storage without agitation and at ambient conditions. […] The material was collected by vacuum filtration and dried under ambient conditions. […] (FIG. 48).

[4] = Competition slurries between crystalline forms; conditions: ethanol, agitating overnight

solubility [1]: ~20 mg/mL (≈ 44.9 mM)
14+ Day XRPD ([2]; suspended in 2-propanol at RT): Form I
24 Hour XRPD ([2]; suspended in 2-propanol at RT): Form I
14+ Day XRPD ([2]; suspended in ACN at RT): Form I
24 Hour XRPD ([2]; suspended in ACN at RT): Form I
24 Hour XRPD ([2]; suspended in DCM at RT): V, II
14+ Day XRPD ([2]; suspended in EtOAc at RT): Form I
24 Hour XRPD ([2]; suspended in EtOAc at RT): Form I
14+ Day XRPD ([2]; suspended in Ethanol at RT): Form I
24 Hour XRPD ([2]; suspended in Ethanol at RT): Form I
14+ Day XRPD ([2]; suspended in IPAC at RT): Form I
24 Hour XRPD ([2]; suspended in IPAC at RT): Form I
14+ Day XRPD ([2]; suspended in MTBE at RT): Form I
24 Hour XRPD ([2]; suspended in MTBE at RT): Form I
14+ Day XRPD ([2]; suspended in THF at RT): Form I
24 Hour XRPD ([2]; suspended in THF at RT): Form I
14+ Day XRPD ([2]; suspended in acetone at RT): Form I
24 Hour XRPD ([2]; suspended in acetone at RT): Form I
14+ Day XRPD ([2]; suspended in methanol at RT): Form I
24 Hour XRPD ([2]; suspended in methanol at RT): Form I
14+ Day XRPD ([2]; suspended in n-heptane at RT): Form I
24 Hour XRPD ([2]; suspended in n-heptane at RT): Form I
14+ Day XRPD ([2]; suspended in water at RT): Form I
24 Hour XRPD ([2]; suspended in water at RT): Form I
Structure (SMILES): Cc1cc(F)c(C(=O)Nc2cccc(-c3nncn3C(C)C)n2)cc1-n1cnc(C2CC2)c1 [Compound I, 5-(4-cyclopropyl-1H-imidazol-1-yl)-N-(6-(4-isopropyl-4H-1,2,4-triazol-3-yl)pyridin-2-yl)-2-fluoro-4-methylbenzamide]

form change upon drying [3]: readily desolvates to Compound I Form II
form change upon drying ([3]; listed as Form V): converting to Form II
Structure (SMILES): Cc1cc(F)c(C(=O)Nc2cccc(-c3nncn3C(C)C)n2)cc1-n1cnc(C2CC2)c1 [Compound I Form V, 5-(4-cyclopropyl-1H-imidazol-1-yl)-N-(6-(4-isopropyl-4H-1,2,4-triazol-3-yl)pyridin-2-yl)-2-fluoro-4-methylbenzamide]

Structure (SMILES): Cc1cc(F)c(C(=O)Nc2cccc(-c3nncn3C(C)C)n2)cc1-n1cnc(C2CC2)c1 [Compound I Form VII, 5-(4-cyclopropyl-1H-imidazol-1-yl)-N-(6-(4-isopropyl-4H-1,2,4-triazol-3-yl)pyridin-2-yl)-2-fluoro-4-methylbenzamide]
outcome of competitive slurry with Compound I Form I [4]: full conversion of Compound I Form VII to Compound I Form I
form change at ambient conditions [3]: rapidly converts back to Compound I Form IV

form change at ambient conditions [3]: converts to Form I
Structure (SMILES): Cc1cc(F)c(C(=O)Nc2cccc(-c3nncn3C(C)C)n2)cc1-n1cnc(C2CC2)c1 [Compound I Form IX, 5-(4-cyclopropyl-1H-imidazol-1-yl)-N-(6-(4-isopropyl-4H-1,2,4-triazol-3-yl)pyridin-2-yl)-2-fluoro-4-methylbenzamide]
